Structures are written as SMILES. pKd: −log10 of the molar value.

From paper PMC4705659, “Functional dichotomy in the 16S rRNA (m^1A1408) methyltransferase family and control of catalytic activity via a novel tryptophan mediated loop reorganization” (Nucleic Acids Research, 2015) come the findings set out here.

For test [1], the target named is T1, CacKam (Catenulispora acidiphila, UniProt C7Q5P8, W203A).
T1 construct: gene Caci_9046; full length 250 residues, N-terminal hexahistidine tag with thrombin site kept; E. coli BL21 (DE3)
As to the kind of experiment: biochemical. The test is classed as binding. The source says:
(§1) isothermal titration calorimetry on CacKam

The target in test [2] is T2, CacKam (Catenulispora acidiphila, UniProt C7Q5P8, W113F).
T2 construct: gene Caci_9046; full length 250 residues, N-terminal hexahistidine tag with thrombin site kept; E. coli BL21 (DE3)
The test can be described thus: biochemical. The test is classed as binding.
Excerpt: as §1

Test [3] concerns the target T3, CacKam (Catenulispora acidiphila, UniProt C7Q5P8, E94A).
T3 construct: gene Caci_9046
As to the kind of experiment: biochemical.

For test [4], the target named is T4, CacKam (Catenulispora acidiphila, UniProt C7Q5P8, S201A).
T4 construct: gene Caci_9046
As to the kind of experiment: biochemical.

The target of test [5] is T5, CacKam (Catenulispora acidiphila, UniProt C7Q5P8).
T5 construct: gene Caci_9046
To be noted: 1 mM SAM; E. coli 30S subunits; 10 mM MgCl2; pH 7.5; 37 °C.

T1 sequence (C7Q5P8 entry or part of it W203A): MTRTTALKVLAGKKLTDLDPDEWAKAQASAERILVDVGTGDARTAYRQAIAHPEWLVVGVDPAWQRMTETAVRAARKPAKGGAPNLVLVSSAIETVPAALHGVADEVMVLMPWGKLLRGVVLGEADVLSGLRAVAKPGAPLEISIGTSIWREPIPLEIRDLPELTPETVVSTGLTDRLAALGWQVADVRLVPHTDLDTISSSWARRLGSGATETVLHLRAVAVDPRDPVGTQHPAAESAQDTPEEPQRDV
T2 sequence (C7Q5P8 entry or part of it W113F): as the sequence (C7Q5P8 entry or part of it W203A) above
T3 sequence (C7Q5P8 entry or part of it E94A): as the sequence (C7Q5P8 entry or part of it W203A) above
T5 sequence (C7Q5P8 entry or part of it): as the sequence (C7Q5P8 entry or part of it W203A) above
T4 sequence (C7Q5P8 entry or part of it S201A): as the sequence (C7Q5P8 entry or part of it W203A) above

The term pKd denotes the Kd on a negative log10 scale, so that one unit is a factor of ten. In the case of `Nc1ncnc2c1ncn2[C@@H]1O[C@H](CSCC[C@H](N)C(=O)O)[C@@H](O)[C@H]1O` [SAH], the negative-log Kd (pKd) in test [1] is 5.29; in test [2], 4.96.
As for `C[S+](CC[C@H](N)C(=O)O)C[C@H]1O[C@@H](n2cnc3c(N)ncnc32)[C@H](O)[C@@H]1O` (stereo partly shown) [SAM], the pKd in test [3] is 4.54; in test [1] it was 4.17; in test [2], 3.99; in test [4] it was 3.96. The “30S methylation, reverse transcription primer extension” value in test [5] is “Methylation by the wild-type enzyme was essentially the same under each condition as expected”.
